Data as given in patent publication US20030134893A1, “Combination chemotherapy” (priority 1999, published 2003).
Where “and” joins values, the source holds several entries; their conditions need not be identical. Identical values can stand only once. Like-named read-outs stand apart in the source and are kept apart here. Marks after values point to notes of the source that are not given here.

How the values were obtained:
[1] = tested on: LC-12 squamous cell lung carcinoma tumor; assay: in vivo
Protocol: (§1) Each agent was also evaluated alone, and treatment groups were compared to untreated controls.

[2] = tested on: LC-12 Mouse Lung Carcinoma
in vivo [3] = details: female, mouse, in vivo
Protocol: as §1

[4] = Route of elimination of radiolabeled drug, monkeys; format: in vivo; details: within 24 hours
Protocol: (§2) Mass balance/route of elimination studies have not been conducted in humans. Animal studies indicate that the principal route of elimination is via renal excretion, with 80% and 62% of radiolabeled drug appearing in the urine of monkeys and rats, respectively, within 24 hours.

[5] = Route of elimination of radiolabeled drug, rats; format: in vivo; details: within 24 hours
Protocol: as §2

solid tumor = assay: Phase 1 dose-escalation clinical study of CI-994 (solid tumor); format: in vivo, human
Protocol: In one such study, patients were treated using a dose-escalation scheme that increased both the daily dose and the duration of treatment. The majority of patients had received extensive prior chemotherapy. The maximum-tolerated dose (MTD) was 15 mg/m^2/day when the duration of treatment was 14 consecutive days. To allow more prolonged treatment, lower doses were studied. Using a schedule of 8 weeks of continuous daily therapy, followed by a 2-week ‘drug holiday’, the MTD was 8 mg/m^2/day. […] Blood counts tended to stabilize even with continued treatment and to recover quickly when treatment was stopped.

[6] = tested on: nonsmall cell lung cancer, renal cell cancer and other cancers; assay: Phase 2 program with CI-994 as a single agent
[7] = Pharmacokinetics of oral CI-994 in the solid tumor Phase 1 study, incl. food effect; format: in vivo, human; details: fasted patients
in vivo [8] = details: female, BALB/C, mouse, po
[9] = tested on: relapsed acute leukemia or other hematologic malignancy; assay: Phase 1 study of CI-994, once daily high-dose 5-day schedule; format: in vivo
Protocol: An additional Phase 1 study was conducted in patients with relapsed acute leukemia or other hematologic malignancy using a once daily high-dose 5-day dosing schedule. The MTD was 135 mg/m^2/day. […] Hematologic toxicities cannot be assessed in this patient population.

in vivo [10] = details: female, mouse, iv
Protocol: The test mice were obtained from Charles River Laboratories, Wilmington, Mass. On Day 0 of the test, each mouse was surgically implanted (subcutaneously) with a fragment of LC-12 squamous cell lung carcinoma tumor weighing approximately 30 to 60 mg. The tumor fragments were implanted using a 12 gauge trocar. The mice were weighed weekly, and tumor size (width and length in mm) were measured two times each week with standard calipers. Tumor mass for each animal was calculated according to the formula: [formula]
where “a” is width of the tumor in mm, and “b” is the length in mm. […] Antitumor activity was assessed according to four parameters: (1) partial tumor response (PR); (2) complete tumor response (CR); (3) tumor-free survival (TF); and (4) tumor growth delay (TL). Tumor growth delay is expressed as a T−C value, where T is the median days required for the treatment group tumors to reach a predetermined size (e.g., 750 mg), and C is the median days for the control group tumors to reach this size. From the tumor growth delay value, the net log10 tumor cell kill is calculated as follows:
where Td is the days for the tumor mass to double, and Rx is the total days of treatment. […] The conversion of the T−C values to log10 cell kill is possible because the Td for tumors regrowing after treatment is approximately the same as that for untreated control mice. […]

[11] = Carboplatin 30 mg/kg/day Days 11-15
[12] = Carboplatin 15 mg/kg/day ip Days 8-12
[13] = Carboplatin 20 mg/kg/day ip Days 8-12
[14] = CI-994 15 mg/kg/day Days 11-15,18-22,25-29
[15] = CI-994 7.5 mg/kg/day oral Days 8-12,15-19, 22-26
[16] = CI-994 15.0 mg/kg/day oral Days 8-12,15-19, 22-26
[17] = CI-994 30.0 mg/kg/day oral Days 8-12,15-19, 22-26
[18] = CI-994 60.0 mg/kg/day oral Days 8-12,15-19, 22-26
[19] = CI-994 60.0 mg/kg/day oral Days 8-12,15-19, 22-26, 60 mg/kg/day
[20] = Paclitaxel 15 mg/kg/day Days 11-15

## N.N.O=C([O-])C1(C(=O)[O-])CCC1.[Pt+2] [Carboplatin, carboplatin, reference compound]
[1]; [11]
  % Weight Change: −3.9%
  Net log10 Kill: 0.3 log10
  No. Tumor Free (40 days after the last treatment): 0
  Nonspecific Deaths: 0/10
  T-C (days to reach 750 mg): 6.9 days
[1]; given alone
  MTD of carboplatin: 30 mg/kg
[2]; [12]
  % Weight Change: −2.0%
  CR (complete response): 1/10
  Net Log10 Kill: +0.3 log10
  No. Tumor Free (Day 71): 0/9
  No. of Deaths: 1/10^h
  PR (partial response): no partial responses and 0/10
  T-C (days to reach 750 mg): 8.3 days
[2]; [13]
  % Weight Change: −5.5%
  CR (complete response): 2/10
  Net Log10 Kill: +0.1 log10
  No. Tumor Free (Day 71): 2/10
  No. of Deaths: 0/10
  PR (partial response): 1/10
  T-C (days to reach 750 mg): 5.9 days
[2]; carboplatin 20 mg/kg (MTD)
  complete responses: 20%
  partial responses: 10%
[2]; carboplatin at 75% of its MTD (15 mg/kg)
  complete responses: Ten percent
[2]; ip, once a day, for 5 days
  MTD of carboplatin: 20 mg/kg

## CC(=O)Nc1ccc(C(=O)Nc2ccccc2N)cc1 [CI-994, 4-acetylamino-N-(2′-aminophenyl)-benzamide]
[1]; [14]
  CR (complete response): 0
  Net log10 Kill: −1.3 log10
  No. Tumor Free (40 days after the last treatment): 0
  Nonspecific Deaths: 0/10
  PR (partial response): 0
  T-C (days to reach 750 mg): 4.6 days
[1]; CI-994 60 mg/kg/day (MTD)
  complete response rate: 30%
[1]; CI-994 60 mg/kg/day Days 11-15,18-22,25-29
  T-C (days to reach 750 mg): 16.2 days
[1]; mouse, in vivo, 15 mg/kg/day
  % Weight Change: +4.0%
[1]; mouse, in vivo, 30 mg/kg/day
  % Weight Change: 13.4%
[1]; mouse, in vivo, 60 mg/kg/day
  % Weight Change: 16.2%
In vivo [3]; BALB/C
  MTD: 60 mg/kg/day
[4]
  radiolabeled drug appearing in the urine: 80%
[2]; [15]
  CR (complete response): 2/10
  Net Log10 Kill: −1.2 log10
  No. Tumor Free (Day 71): 2/10
  No. of Deaths: 0/10
  PR (partial response): 0/10
  T-C (days to reach 750 mg): 1.0 days
[2]; [16]
  CR (complete response): 1/10
  Net Log10 Kill: −1.3 log10
  No. Tumor Free (Day 71): 1/10
  No. of Deaths: 0/10
  PR (partial response): 0/10
  T-C (days to reach 750 mg): 0.9 days
[2]; CI-994 30 mg/kg
  complete responses: 20%
  partial responses: 10%
[2]; [17]
  CR (complete response): 2/10
  Net Log10 Kill: −0.7 log10
  No. Tumor Free (Day 71): 2/10
  No. of Deaths: 0/10
  PR (partial response): 1/10
  T-C (days to reach 750 mg): 8.2 days
[2]; CI-994 60 mg/kg (MTD)
  complete responses: 50%
[2]; [18]
  CR (complete response): 5/10
  No. of Deaths: 0/10
  T-C (days to reach 750 mg): 19.4 days
[2]; [19]
  No. Tumor Free (Day 71): 5/10
  PR (partial response): no partial responses and 0/10
[2]; lower CI-994 doses (below 30 mg/kg)
  antitumor activity: Little antitumor activity
[2]; mouse, in vivo, po, 7.5 mg/kg/day
  % Weight Change: +4.4%
[2]; mouse, in vivo, po, 15 mg/kg/day
  % Weight Change: +4.9%
[2]; mouse, in vivo, po, 30 mg/kg/day
  % Weight Change: +2.0%
[2]; mouse, in vivo, po, 60 mg/kg/day
  % Weight Change: −1.5%
[5]
  radiolabeled drug appearing in the urine: 62%
Solid tumor; 8 weeks of continuous daily therapy, followed by a 2-week drug holiday, patients
  MTD: 8 mg/m^2/day
Solid tumor; duration of treatment 14 consecutive days, patients
  maximum-tolerated dose (MTD): 15 mg/m^2/day
Solid tumor; human, in vivo
  cumulative toxicity: no evidence of cumulative toxicity
  dose-limiting toxicity: thrombocytopenia or neutropenia
  other toxicities: nausea, vomiting, diarrhea, anorexia, fatigue, mucositis, headache, dehydration, and increases in liver and renal function test values
  time of occurrence of the dose-limiting toxicity after the start of therapy: ≤ 1 month
Solid tumor; patients, majority with extensive prior chemotherapy
  responses: one partial response in a heavily pretreated patient with NSCLC and a minor response in one patient each with renal cell cancer and NSCLC
[6]; 8 mg/m^2 given orally daily
  clinical benefit: Clinical benefit has been reported in patients with renal cell cancer
  dose-limiting toxicity: Thrombocytopenia
  infrequent neurologic adverse events: paresthesias, confusion, and hallucinations
  objective responses: Objective responses have been seen in patients with nonsmall cell lung cancer
[6]; oral daily, starting from 8 mg/m^2
  dose increases tolerated by some patients: 10 mg/m^2
[7]
  dose dependence of terminal elimination half-life and apparent clearance rate: independent of the dose administered
  maximum plasma concentrations with increasing dose levels: less than dose-proportional
[7]; preliminary results
  time to maximum blood level after ingestion: 1 to 2 h
[7]; human, plasma, preliminary results, read-out: terminal elimination half-life (converted)
  half-life: ~15 h
In vivo [8]
  MTD at 15 days: 60 mg/kg
[9]; in vivo
  dose-limiting toxicity: acute CNS toxicity manifested as sedation and somnolence
  other adverse events: nausea, vomiting, hypotension resulting from dehydration, hypocalcemia, headache, and in one patient each, acute pancreatitis, a pyramidal syndrome characterized by hyperreflexia and bilateral Babinski reflexes, and sepsis
[9]; once daily high-dose 5-day dosing schedule, patients
  MTD: 135 mg/m^2/day
[9]; patients with AML
  tumor lysis syndrome: Two patients with AML developed tumor lysis syndrome, resulting in one death

## CC(=O)O[C@H]1C(=O)[C@@]2(C)[C@H]([C@H](OC(=O)c3ccccc3)[C@]3(O)C[C@H](OC(=O)[C@H](O)[C@@H](NC(=O)c4ccccc4)c4ccccc4)C(C)=C1C3(C)C)[C@]1(OC(C)=O)CO[C@@H]1C[C@@H]2O [Taxol, paclitaxel, reference compound]
[1]; [20]
  Net log10 Kill: 0.0 log10
  No. Tumor Free (40 days after the last treatment): 0
  Nonspecific Deaths: 0/10
  T-C (days to reach 750 mg): 3.7 days
In vivo [3]; 15 mg/kg
  MTD: 15 mg/kg
In vivo [10]
  MTD: 20 mg/kg/day
